We go through one molecule from patent US8846696B2, “Purine derivatives” (Cyclacel Limited, priority 2002, dated 2014).

The test system of one data set is WI38. Kind of data set: 72-h MTT assay WI38. The class given is cell-based. As to conditions: Homo sapiens, WI-38, 72 h, read-out: 72-h MTT IC50; WI38, normal foetal lung fibroblast. On the procedure:
(§1) In short: cells were seeded into 96-well plates according to doubling time and incubated overnight at 37° C. Test compounds were made up in DMSO and a ⅓ dilution series prepared in 100 μL cell media, added to cells (in triplicates) and incubated for 72 ho at 37° C. MTT was made up as a stock of 5 mg/mL in cell media and filter-sterilised. Media was removed from cells followed by a wash with 200 μL PBS. MTT solution was then added at 20 μL per well and incubated in the dark at 37° C. for 4 h. MTT solution was removed and cells again washed with 200 μL PBS. MTT dye was solubilised with 200 μL per well of DMSO with agitation.
(§2) Representative compounds of this invention were examined for their anti-proliferative effect against human tumour cell lines and immortalized non-transformed human cell lines (“normal” cell lines).

A further data set deals with ERK-2 (Homo sapiens (Human), UniProt P28482). Kind of data set: Kinase assay ERK-2. Conditions: read-out: Kinase inhibition ERK2 IC50.
Chain of ERK-2 (P28482 whole entry, species assumed): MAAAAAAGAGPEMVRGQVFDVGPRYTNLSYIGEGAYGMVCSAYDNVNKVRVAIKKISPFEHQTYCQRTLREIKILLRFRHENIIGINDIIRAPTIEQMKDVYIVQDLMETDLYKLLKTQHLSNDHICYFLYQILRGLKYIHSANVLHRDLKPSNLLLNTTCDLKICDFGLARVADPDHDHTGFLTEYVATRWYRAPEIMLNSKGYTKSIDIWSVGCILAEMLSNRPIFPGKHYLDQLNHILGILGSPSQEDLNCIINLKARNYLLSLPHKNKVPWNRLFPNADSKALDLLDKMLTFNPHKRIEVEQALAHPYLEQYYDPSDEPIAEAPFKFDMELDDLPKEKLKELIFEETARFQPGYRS
The next data set relates to normal cell lines. Kind of data set: 72-h MTT assay, mean of normal cell lines. The class given is cell-based. As to conditions: Homo sapiens, read-out: 72-h MTT IC50. The procedure: as §1, §2
Data set [1] deals with cyclic AMP-dependent kinase (PKA) catalytic subunit (Homo sapiens (Human), UniProt P17612). Kind of data set: Kinase assay PKA. As to conditions: read-out: Kinase inhibition PKA IC50.
Experimental: (§3) Recombinant cyclin D1 was expressed in E. coli. […] Reactions were stopped on ice, followed by filtration through p81 filterplates or GF/C filterplates (for CDK4) (Whatman Polyfiltronics, Kent, UK), except for CDK7 where, after stopping reaction on ice, 10 μL of 10 mg/mL avidin was added to each well and further incubated for 10 min followed by filtration as per CDK2 assay. After washing 3 times with 75 mM aq orthophosphoric acid, plates were dried, scintillant added and incorporated radioactivity measured in a scintillation counter (TopCount, Packard Instruments, Pangbourne, Berks, UK). Compounds for kinase assay were made up as 10 mM stocks in DMSO and diluted into 10% DMSO in assay buffer.
The subject of a further data set is IMR90. Kind of data set: 72-h MTT assay IMR90. Conditions: Homo sapiens, IMR-90, 72 h, read-out: 72-h MTT IC50; IMR90, normal embryo lung fibroblast. The class given is cell-based. On the procedure:
as §1, §2
In general terms: Tetrazolium dyes change colour on reduction, which living cells bring about.

The subject of a further data set is K-562. In words: 72-h MTT assay K-562. The class given is cell-based. As to conditions: Homo sapiens, K562, 72 h, read-out: 72-h MTT IC50. On the procedure: as §1, §2
A further data set concerns the target CDK2/cyclin E (Homo sapiens (Human), UniProt P24941). Kind of data set: Kinase assay CDK2/cyclin E. In kind it is biochemical.
The subject of another data set is cancer cell lines. Kind of data set: 72-h MTT assay, mean of cancer cell lines. As to conditions: Homo sapiens, read-out: 72-h MTT IC50. In kind it is cell-based. The procedure:
as §1, §2

The subject of the next data set is HeLa. In words: 72-h MTT assay HeLa. The class given is cell-based. Conditions: Homo sapiens, read-out: 72-h MTT IC50, cervical adenocarcinoma. The procedure:
as §1, §2

Another data set deals with A549. Kind of data set: 72-h MTT assay A549. As to conditions: Homo sapiens, read-out: 72-h MTT IC50, A549, lung carcinoma. In kind it is cell-based. The procedure:
as §1, §2

In a further data set the test system is MCF7. Kind of data set: 72-h MTT assay MCF7. As to conditions: Homo sapiens, read-out: 72-h MTT IC50, MCF7, mammary adenocarcinoma. In kind it is cell-based. On the procedure: as §1, §2
In the next data set the test system is Saos-2. Kind of data set: 72-h MTT assay Saos-2. In kind it is cell-based. Conditions: Homo sapiens, read-out: 72-h MTT IC50, Saos-2, osteosarcoma. On the procedure:
as §1, §2

For data set [2] the following is noted: 10 μM.
Experimental: Calibration curves were prepared at 0, 1, and 10 μM in microsomes pre-incubated for 30 min and these were also treated with methanol containing olomoucine. All samples were then centrifuged and the supernatants analysed by liquid chromatography-mass spectrometry.
The chromatography column was a Supelco LC-ABZ, 50×4.6 mm, 5 μm zwitterionic column (Supelco Inc., Supelco Park, Bellefonte, Pa., USA). Gradient eluants consisted of methanol (A) and 0.1% formic acid in water (B). […] The flow rate was 1 mL/min throughout. […] Eluant from the detector passed, without splitting, into a Thernoquest LCQ ion trap mass spectrometer fitted with an electrospray source operated in positive mode. Mass spectrometer conditions were sheath gas 80, auxiliary gas 20 (both arbitrary units), capillary voltage 4 to 4.5 kV and heated capillary temperature 250 to 280° C. The mass range was 50-750. Scan time was controlled by the ion trap which was set to a maximum ion injection time of 200 ms or the time required to inject 2×10^8 ions; for each scan the system automatically used whichever time was reached first.
The peak area ration (test compound/internal standard) of the test incubation was then compared with the peak area ratios obtained fro the calibration curve of the test compound. From these values the concentration of test compound remaining after 30 min microsomal protein incubation was determined.
For another data set, the target named is CDK4/cyclin D1 (Homo sapiens (Human), UniProt P11802). Conditions: read-out: Kinase inhibition CDK4/cyclin D1 IC50.
Chain of CDK4/cyclin D1 (P11802 whole entry): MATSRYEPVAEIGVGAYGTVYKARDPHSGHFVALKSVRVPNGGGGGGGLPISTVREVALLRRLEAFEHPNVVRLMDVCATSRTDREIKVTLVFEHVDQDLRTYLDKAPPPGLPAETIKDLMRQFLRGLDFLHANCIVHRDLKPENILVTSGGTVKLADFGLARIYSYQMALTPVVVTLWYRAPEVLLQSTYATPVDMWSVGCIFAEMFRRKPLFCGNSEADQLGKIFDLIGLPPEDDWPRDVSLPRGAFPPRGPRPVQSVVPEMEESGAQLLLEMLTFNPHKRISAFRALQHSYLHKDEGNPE
Chain of CDK4/cyclin D1 (P24385 whole entry partner): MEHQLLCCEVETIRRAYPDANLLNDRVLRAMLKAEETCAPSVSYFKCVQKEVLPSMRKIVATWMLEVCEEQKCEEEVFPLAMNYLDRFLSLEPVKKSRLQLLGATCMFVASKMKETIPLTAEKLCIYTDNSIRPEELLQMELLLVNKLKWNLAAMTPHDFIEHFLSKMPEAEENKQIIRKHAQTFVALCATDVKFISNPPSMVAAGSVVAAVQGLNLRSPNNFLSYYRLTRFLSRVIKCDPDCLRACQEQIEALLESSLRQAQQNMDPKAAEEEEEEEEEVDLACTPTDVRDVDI
The test system of the next data set is HL-60. In words: 72-h MTT assay HL-60. The class given is cell-based. Conditions: Homo sapiens, read-out: 72-h MTT IC50, HL-60, acute promyelocytic leukaemia. On the procedure:
as §1, §2

Another data set relates to CCRF-CEM. In words: 72-h MTT assay CCRF-CEM. The class given is cell-based. Conditions: Homo sapiens, read-out: 72-h MTT IC50, acute lymphoblastic leukaemia. On the procedure:
as §1, §2

A further data set concerns Hs27. Kind of data set: 72-h MTT assay Hs27. Conditions: Homo sapiens, read-out: 72-h MTT IC50, Hs27, normal foreskin fibroblast. In kind it is cell-based. On the procedure:
as §1, §2

A further data set deals with CDK7/cyclin H (Homo sapiens (Human), UniProt P50613). In words: Kinase assay CDK7/cyclin H. The class given is biochemical. Conditions: read-out: Kinase inhibition CDK7/cyclin H IC50.
Chain of CDK7/cyclin H (P50613 whole entry): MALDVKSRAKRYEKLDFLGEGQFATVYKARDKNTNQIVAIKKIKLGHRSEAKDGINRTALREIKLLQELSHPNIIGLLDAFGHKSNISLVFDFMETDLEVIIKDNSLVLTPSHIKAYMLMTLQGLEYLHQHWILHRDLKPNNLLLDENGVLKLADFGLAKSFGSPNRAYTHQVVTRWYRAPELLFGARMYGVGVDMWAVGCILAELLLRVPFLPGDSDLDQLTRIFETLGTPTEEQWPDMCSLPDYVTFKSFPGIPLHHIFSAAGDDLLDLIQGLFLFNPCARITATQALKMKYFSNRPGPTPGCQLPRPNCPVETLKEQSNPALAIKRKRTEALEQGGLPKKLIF
Chain of CDK7/cyclin H (P51946 whole entry partner): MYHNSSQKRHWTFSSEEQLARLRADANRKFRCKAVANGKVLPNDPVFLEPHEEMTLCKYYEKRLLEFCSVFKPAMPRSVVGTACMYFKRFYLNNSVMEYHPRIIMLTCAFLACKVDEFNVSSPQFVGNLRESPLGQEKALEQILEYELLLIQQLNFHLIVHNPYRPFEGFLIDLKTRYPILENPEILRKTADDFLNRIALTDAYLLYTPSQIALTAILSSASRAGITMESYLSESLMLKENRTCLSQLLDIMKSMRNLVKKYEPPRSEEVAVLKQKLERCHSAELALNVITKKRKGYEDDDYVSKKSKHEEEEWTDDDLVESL
For another data set, the target named is CDK1/cyclin B (Homo sapiens (Human), UniProt P06493). In words: Kinase assay CDK1/cyclin B. Conditions: read-out: Kinase inhibition CDK1/cyclin B IC50. The class given is biochemical.
Chain of CDK1/cyclin B (P06493 whole entry): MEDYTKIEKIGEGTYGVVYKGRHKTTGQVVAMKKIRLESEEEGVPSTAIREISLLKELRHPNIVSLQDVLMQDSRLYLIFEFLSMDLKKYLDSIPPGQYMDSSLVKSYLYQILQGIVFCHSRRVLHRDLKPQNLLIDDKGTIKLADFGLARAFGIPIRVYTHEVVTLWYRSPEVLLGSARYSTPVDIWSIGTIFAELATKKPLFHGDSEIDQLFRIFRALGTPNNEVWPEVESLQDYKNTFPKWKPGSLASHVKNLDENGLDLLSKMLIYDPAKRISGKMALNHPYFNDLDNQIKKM
Chain of CDK1/cyclin B (P14635 whole entry partner): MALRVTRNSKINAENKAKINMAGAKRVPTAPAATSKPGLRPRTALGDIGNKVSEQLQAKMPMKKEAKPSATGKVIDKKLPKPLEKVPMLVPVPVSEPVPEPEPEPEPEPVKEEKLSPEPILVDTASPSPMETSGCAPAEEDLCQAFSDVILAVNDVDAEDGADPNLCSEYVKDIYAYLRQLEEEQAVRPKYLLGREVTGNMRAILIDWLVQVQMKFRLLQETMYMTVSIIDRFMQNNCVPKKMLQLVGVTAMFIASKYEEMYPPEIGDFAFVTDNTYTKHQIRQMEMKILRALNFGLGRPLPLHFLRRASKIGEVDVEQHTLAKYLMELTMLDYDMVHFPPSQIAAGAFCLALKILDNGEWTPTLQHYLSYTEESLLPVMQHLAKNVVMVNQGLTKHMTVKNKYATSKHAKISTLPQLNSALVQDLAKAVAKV
The subject of a further data set is HT-29. In words: 72-h MTT assay HT-29. In kind it is cell-based. Conditions: Homo sapiens, read-out: 72-h MTT IC50, HT-29, colorectal adenocarcinoma. On the procedure:
as §1, §2

The subject of data set [3] is Human tumour cell lines: A549, HT29, Saos-2. Kind of data set: 72-h MTT cytotoxicity assay, tumour cell lines A549, HT29, Saos-2. The class given is cell-based. On the procedure:
as §1

Experimental for CDK1/cyclin B: as §3
Experimental for CDK2/cyclin E: as §3
Experimental for CDK4/cyclin D1: as §3
Experimental for CDK7/cyclin H: Reactions were stopped on ice, followed by filtration through p81 filterplates or GF/C filterplates (for CDK4) (Whatman Polyfiltronics, Kent, UK), except for CDK7 where, after stopping reaction on ice, 10 μL of 10 mg/mL avidin was added to each well and further incubated for 10 min followed by filtration as per CDK2 assay. After washing 3 times with 75 mM aq orthophosphoric acid, plates were dried, scintillant added and incorporated radioactivity measured in a scintillation counter (TopCount, Packard Instruments, Pangbourne, Berks, UK). Compounds for kinase assay were made up as 10 mM stocks in DMSO and diluted into 10% DMSO in assay buffer.
Experimental for ERK-2: as §3

For the molecule `CC[C@H](Nc1nc(NCc2cccnc2)c2ncn(C(C)C)c2n1)C(C)(C)O` [(3S)-3-{9-Isopropyl-6-[(pyridin-3-ylmethyl)-amino]-9H-purin-2-ylamino}-2-methyl-pentan-2-ol], the IC50 in the data set on WI38 is more than 20 µM; on ERK-2, 35 µM; with normal cell lines, more than 10 µM; in data set [1], more than 200 µM; with IMR90, more than 20 µM; in the data set with K-562 it was 8.4 ± 1.2 µM. Further, the IC50 turned out to be 70 nM at CDK2/cyclin E (read-out: Kinase inhibition CDK2/cyclin E IC50); 4 ± 2 µM in the data set on cancer cell lines; 4.7 ± 0.5 µM in the data set with HeLa; 3.6 ± 0.2 µM in the data set with A549; 2300 ± 300 nM in the data set with MCF7; 3.9 ± 0.8 µM with Saos-2. Also, the IC50 at CDK4/cyclin D1 is 12 µM; in the data set with HL-60 it was 3000 ± 200 nM; in the data set with CCRF-CEM it was 3.7 ± 0.3 µM; in the data set with Hs27, 11.3 ± 0.7 µM; at CDK7/cyclin H, 2500 nM; on CDK1/cyclin B it was 4.4 µM. Further, the IC50 in the data set on HT-29 amounted to 2300 ± 900 nM; in data set [3] (72 h, read-out: In vitro anti-proliferative activity (72-h MTT IC50), Human tumour cell lines: A549, HT29, Saos-2) it was 4 µM. Also, the “A × B” value on CDK2/cyclin E (comparative in vitro efficacy) turned out to be 3.2. The “B: IC50 CDK2 roscovitine/IC50 CDK2 compound” value at CDK2/cyclin E (ratio to roscovitine) is 1.4. Further, the “% Drug after 30 min. microsomal incubation” value in data set [2] was 78%. Further, the “C: IC50 cytotox. roscovitine/IC50 cytotox. compound” value in data set [3] (ratio to roscovitine) amounted to 2.9.
